Experimental data from patent publication US4091102A, “Anti-depressant trans-hexahydropyrido[3,4-b]indoles” (Endo Laboratories, Inc., priority 1976, dated 1978).
Where two headings read alike, the source gives them in different places.

Tested on: tetrabenazine-induced sedation and depression in mice
Experiment: Antagonism of tetrabenazine-induced depression in mice orally at 1 hour post-drug
Type: in vivo, Carworth CF1 S female mice
Details: Mus musculus, oral, 1 hour post-drug (30 minutes after tetrabenazine 32 mg/kg intraperitoneally)
Source text: A standard procedure for detecting and comparing the antidepressant activity of compounds in this series for which there is good correlation with human efficacy is the prevention of tetrabenazine-induced sedation and depression in mice. (Everett, "The Dopa Response Potentiation Test and Its Use in Screening for Antidepressant Drugs", pp. 164-167 in "Antidepressant Drugs" [Proceedings of the First International Symposium], S. Garattini and M. N. G. Dukes, eds., 1967.). Groups of 10 Carworth CF1 S female mice, 18-21 g. each, were fasted 1.5 hours and were intubated with antagonist compounds at oral doses of 0, 5, 25, and 125 mg/kg or 0, 1, 3, 9, 27, and 81 mg/kg in 0.20 ml. of 1% Methocel (methylcellulose). The mice were challenged 30 minutes later with tetrabenazine (as the methane-sulfonate), 32 mg/kg intraperitoneally (dissolved in 0.20 ml. 0.05M KCl at pH 2.0). One hour after antagonist (30 minutes after tetrabenazine), the mice were examined for signs of exploratory activity and ptosis (eyelid closure). Normal exploratory activity (relief from sedation) was recorded when a mouse lifted by the tail from a group of 10 in a testing box and placed on a stainless steel testing box lid (12.5 × 8 inches with 0.33 inch mesh) either turned its head horizontally 30° in both directions or moved to the edge of the screen within 10 seconds after being placed on the screen. Relief from ptosis was recorded when exactly 2 seconds after placing the mouse facing the observer, lid closure was less than 50% in both eyes. The following table gives results. |ANTAGONISM OF TETRABENAZINE-INDUCED |DEPRESSION IN MICE ORALLY AT 1 HOUR |POST-DRUG

[1] = lid closure less than 50% in both eyes, read-out: ED50 for prevention of ptosis
[2] = relief from sedation (exploratory activity), read-out: ED50 for prevention of exploratory loss

CCN1CCC2c3ccccc3N(c3ccccc3)C2C1C (stereo not drawn) [Ia]
ED50 [1]: 3 mg/kg | ED50 [2]: 4.2 mg/kg

CN(C)CCC=C1c2ccccc2CCc2ccccc21 [Amitriptyline, amitriptyline, reference compound]
ED50 [1]: 1.7 mg/kg | ED50 [2]: 4.7 mg/kg

CCC1C2C(CCN1C)c1ccccc1N2c1ccccc1 (stereo not drawn) [Ie]
ED50 [1]: 9.1 mg/kg | ED50 [2]: 11.2 mg/kg

CC(C)N1CCC2c3ccccc3N(c3ccccc3)C2C1C (stereo not drawn) [Id]
ED50 [1]: 11.2 mg/kg | ED50 [2]: 19 mg/kg

CC1NCCC2c3ccccc3N(c3ccccc3)C12 (stereo not drawn) [Ig]
ED50 [1]: 25 mg/kg | ED50 [2]: 31 mg/kg

CCC1C2C(CCN1CC)c1ccccc1N2c1ccccc1 (stereo not drawn) [If]
ED50 [1]: 27 mg/kg | ED50 [2]: 38 mg/kg

CC1C2C(CCN1C)c1ccccc1N2c1ccccc1 (stereo not drawn) [Ib]
ED50 [1]: 16 mg/kg | ED50 [2]: 38 mg/kg

CCCN1CCC2c3ccccc3N(c3ccccc3)C2C1C (stereo not drawn) [Ic]
ED50 [1]: 14 mg/kg | ED50 [2]: 38 mg/kg

CCN1CC2C(CC1C)c1ccccc1N2c1ccccc1 (stereo not drawn) [Ij]
ED50 [1]: < 5 mg/kg | ED50 [2]: < 5 mg/kg
